In patent US20060293307A1, “Oxazolidinone derivatives as antimicrobials” (priority 2002, published 2006):
Converted amounts (≈) assume the structure as drawn. Like-named read-outs stand apart in the source and are kept apart here.

Assays:
M. intracellulare F21/12 = assay: MIC against MAC strains, agar dilution; assay type: cell-based; details: S. No. 08 Mi-3, M. intracellulare F21/12, Middle Brook 7H10 + OADC, 37° C., 14-21 days
M. tuberculosis M-66 = assay: MIC against M. tuberculosis strains, agar dilution; assay type: cell-based, Mycobacterium tuberculosis; details: Middle Brook 7H10 + OADC, 37° C., 14-21 days
M. tuberculosis ATCC = assay: MIC against M. tuberculosis strains, agar dilution; assay type: cell-based, Mycobacterium tuberculosis; details: S. No. 01.Mt-, Middle Brook 7H10 + OADC, 37° C., 14-21 days
M. tuberculosis PC 4782 = assay: MIC against M. tuberculosis strains, agar dilution; assay type: cell-based, Mycobacterium tuberculosis; details: Middle Brook 7H10 + OADC, 37° C., 14-21 days
M. tuberculosis SGPGI = assay: MIC against M. tuberculosis strains, agar dilution; assay type: cell-based, Mycobacterium tuberculosis; details: S. No. 05 Mt-, Middle Brook 7H10 + OADC, 37° C., 14-21 days
S. epidermidis 823 = assay: MIC, agar incorporation method; assay type: cell-based, Staphylococcus epidermidis; details: Staphylococcus epidermidis, 823
S. pneumoniae 1251 = assay: MIC, agar incorporation method; assay type: cell-based, Streptococcus pneumoniae; details: Streptococcus pneumoniae, 1251
S. pneumoniae AB-2 = assay: MIC, agar incorporation method; assay type: cell-based, Streptococcus pneumoniae; details: Streptococcus pneumoniae, AB2
H. influenzae 451 = assay: MIC against Haemophilus strains; assay type: cell-based; details: Haemophilus influenzae; s. No. 8, H. influenzae 451; read-out: MIC
S. pneumoniae AB-3 = assay: MIC, agar incorporation method; assay type: cell-based, Streptococcus pneumoniae; details: Streptococcus pneumoniae, AB3
H. influenzae 1381 = assay: MIC against Haemophilus strains; assay type: cell-based; details: Haemophilus influenzae; s. No. 7, H. influenzae 1381; read-out: MIC
S. pneumoniae AB 23 = assay: MIC, agar incorporation method; assay type: cell-based, Streptococcus pneumoniae; details: Streptococcus pneumoniae, AB23
Salmonella 205 = assay: MIC, agar incorporation method; assay type: cell-based; details: S. No. 26, Salmonella 205; read-out: MIC
Protocol: The compounds of the invention display antibacterial activity when tested by the agar incorporation method. The following minimum inhibitory concentrations (μg/ml) were obtained for representative compounds of the invention which are given below in the following tables.
Briefly, the compounds were dissolved in DMSO and doubling dilution of the compounds were incorporated into Meer Hilton agar before solidification. Inoculum was prepared by suspending 4 to 5 colonies into 5 ml of normal saline solution and adjusting the turbidity to 0.5 Macfarland turbidity standard tables (1.5×10^8 CFU/ml), after appropriate dilutions, 10^4 CFU/spot was transfered into the surface of dried plate and incubated for 18 hours (24 hours for MRSN studies). The concentration showing no growth of the inoculated culture was recorded as the MIC. Appropriate ATCC standard strains were simultaneously tested and result recorded only when the MIC's against standard antibiotics were within the acceptable range.

S. pneumoniae AB 22 = assay: MIC, agar incorporation method; assay type: cell-based, Streptococcus pneumoniae; details: Streptococcus pneumoniae, AB22
[1] = system: S. epidermidis (MRSE) 23760; assay: MIC, agar incorporation method; assay type: cell-based, Staphylococcus epidermidis; details: Staphylococcus epidermidis, MRSE
Moraxella M6 = assay: MIC, agar incorporation method; assay type: cell-based
S. epidermidis 358 = assay: MIC, agar incorporation method; assay type: cell-based, Staphylococcus epidermidis; details: Staphylococcus epidermidis
S. pneumoniae ATCC 49619 = assay: MIC, agar incorporation method; assay type: cell-based, Streptococcus pneumoniae; details: Streptococcus pneumoniae, ATCC49619
[2] = system: S. epidermidis ATCC 12228; assay: MIC, agar incorporation method; assay type: cell-based, Staphylococcus epidermidis; details: Staphylococcus epidermidis, ATCC12228
E. faecalis SP 346 (VRE) = assay: MIC, agar incorporation method; assay type: cell-based; details: Enterococcus faecalis
E. faecalis 21777 = assay: MIC, agar incorporation method; assay type: cell-based; details: Enterococcus faecalis
K. oxytoca 49131 = assay: MIC, agar incorporation method; assay type: cell-based; details: Klebsiella oxytoca
S. aureus (MRSA) 15187 = assay: MIC, agar incorporation method; assay type: cell-based, Staphylococcus aureus; details: Staphylococcus aureus
S. aureus (MRSA) ST450 = assay: MIC, agar incorporation method; assay type: cell-based, Staphylococcus aureus; details: Staphylococcus aureus
E. faecium 6A (VRE) = assay: MIC, agar incorporation method; assay type: cell-based, Enterococcus faecium; details: Enterococcus faecium
H. influenzae 49766 = assay: MIC against Haemophilus strains; assay type: cell-based; details: Haemophilus influenzae; s. No. 6, H. influenzae 49766; read-out: MIC
S. pyogenes 25147 = assay: MIC, agar incorporation method; assay type: cell-based, Streptococcus pyogenes; details: Streptococcus pyogenes, 25147
S. pneumoniae AB 30 = assay: MIC, agar incorporation method; assay type: cell-based, Streptococcus pneumoniae; details: Streptococcus pneumoniae, AB30
S. pneumoniae 1256 = assay: MIC, agar incorporation method; assay type: cell-based, Streptococcus pneumoniae; details: Streptococcus pneumoniae
[3] = Mycobacterium tuberculosis, M66, S. No. 08 Mt-, read-out: MIC
[4] = Mycobacterium tuberculosis, read-out: MIC
[5] = Mycobacterium tuberculosis, PC4782, S. No. 21 Mt-, read-out: MIC

Structure (SMILES): CC[C@H]1OC(=O)[C@H](C)[C@@H](O[C@H]2C[C@@](C)(OC)[C@@H](O)[C@H](C)O2)[C@H](C)[C@@H](O[C@@H]2O[C@H](C)C[C@H](N(C)C)[C@H]2O)[C@](C)(OC)C[C@@H](C)C(=O)[C@H](C)[C@@H](O)[C@]1(C)O [CLA]
- MIC (M. intracellulare F21/12): 1.0 µg/mL
- MIC (M. tuberculosis M-66; S. No. 08 Mt-): 16 µg/mL
- MIC (M. tuberculosis ATCC): 32 µg/mL
- MIC (M. tuberculosis PC 4782; S. No. 21 Mt-): 16 µg/mL
- MIC (M. tuberculosis SGPGI): 8.0 µg/mL

Structure (SMILES): CC(=O)NC[C@H]1CN(c2ccc(N3CCN(c4ccc([N+](=O)[O-])s4)CC3)c(F)c2)C(=O)O1 [Compound No. 1, (S)—N-[[3-[3-Fluoro-4-[4-(5-nitro-2-thienyl)-1-piperazinyl]phenyl]-2-oxo-5-oxazolidinyl]methyl]acetamide]
- MIC (M. intracellulare F21/12; Mycobacterium intracellulare, read-out: MIC): 0.25 µg/mL
- MIC (S. epidermidis 823): 0.125 µg/mL (≈ 0.27 µM)
- MIC (S. pneumoniae 1251): 0.125 µg/mL (≈ 0.27 µM)
- MIC (S. pneumoniae AB-2): 0.125 µg/mL (≈ 0.27 µM)
- MIC (H. influenzae 451): 16 µg/mL (≈ 34.5 µM)
- MIC (M. tuberculosis M-66; [3]): > 32 µg/mL
- MIC (S. pneumoniae AB-3; S. No. 32, S. pneumoniae AB-3, read-out: MIC): 0.06 µg/mL (≈ 0.129 µM)
- MIC (H. influenzae 1381): 8 µg/mL (≈ 17.3 µM)
- MIC (S. pneumoniae AB 23): 0.125 µg/mL (≈ 0.27 µM)
- MIC (Salmonella 205): > 16 µg/mL
- MIC (S. pneumoniae AB 22): 0.125 µg/mL (≈ 0.27 µM)
- MIC [1]: 0.125 µg/mL (≈ 0.27 µM)
- MIC (Moraxella M6; S. No. 60, Moraxella M6, read-out: MIC): 0.25 µg/mL (≈ 0.539 µM)
- MIC (S. epidermidis 358; S. No. 14, S. epidermidis 358, read-out: MIC): 0.25 µg/mL (≈ 0.539 µM)
- MIC (S. pneumoniae ATCC 49619; S. No. 48, S. pneumoniae ATCC 49619, read-out: MIC): 0.06 µg/mL (≈ 0.129 µM)
- MIC [2]: 0.125 µg/mL (≈ 0.27 µM)
- MIC (E. faecalis SP 346 (VRE); S. No. 20, E. faecalis SP 346 (VRE), read-out: MIC): 0.25 µg/mL (≈ 0.539 µM)
- MIC (E. faecalis 21777; S. No. 18, E. faecalis 21777, read-out: MIC): 0.25 µg/mL (≈ 0.539 µM)
- MIC (K. oxytoca 49131; S. No. 27, K. oxytoca 49131, read-out: MIC): > 16 µg/mL
- MIC (M. tuberculosis ATCC; [4]): ≤ 0.125 µg/mL
- MIC (S. aureus (MRSA) 15187; S. No. 4, S. aureus (MRSA) 15187, read-out: MIC): 0.25 µg/mL (≈ 0.539 µM)
- MIC (S. aureus (MRSA) ST450; S. No. 6, S. aureus (MRSA) ST450, read-out: MIC): 0.25 µg/mL (≈ 0.539 µM)
- MIC (E. faecium 6A (VRE); S. No. 21, E. faecium 6A (VRE), read-out: MIC): 0.25 µg/mL (≈ 0.539 µM)
- MIC (H. influenzae 49766): 8 µg/mL (≈ 17.3 µM)
- MIC (M. tuberculosis PC 4782; [5]): 0.125 µg/mL
- MIC (S. pyogenes 25147): 0.125 µg/mL (≈ 0.27 µM)
- MIC (S. pneumoniae AB 30): 0.125 µg/mL (≈ 0.27 µM)
- MIC (M. tuberculosis SGPGI; [4]): 0.25 µg/mL
- MIC (S. pneumoniae 1256; S. No. 56, S. pneumoniae 1256, read-out: MIC): 0.25 µg/mL (≈ 0.539 µM)

Structure (SMILES): CCc1cc(C(N)=S)ccn1 [ETH]
- MIC (M. intracellulare F21/12): 8.0 µg/mL
- MIC (M. tuberculosis M-66; S. No. 08 Mt-): >32 µg/mL
- MIC (M. tuberculosis ATCC): 2.0 µg/mL
- MIC (M. tuberculosis PC 4782; S. No. 21 Mt-): 1.0 µg/mL
- MIC (M. tuberculosis SGPGI): 4.0 µg/mL

Structure (SMILES): NNC(=O)c1ccncc1 [INH]
- MIC (M. intracellulare F21/12): 32 µg/mL
- MIC (M. tuberculosis M-66; S. No. 08 Mt-): >32 µg/mL
- MIC (M. tuberculosis ATCC): 0.125 µg/mL
- MIC (M. tuberculosis PC 4782; S. No. 21 Mt-): 0.25 µg/mL
- MIC (M. tuberculosis SGPGI): 1.0 µg/mL

Structure (SMILES): CC(=O)NC[C@H]1CN(c2ccc(N3CCOCC3)c(F)c2)C(=O)O1 [Linezolid, reference compound]
- MIC (S. epidermidis 823): < 0.5 µg/mL
- MIC (S. pneumoniae 1251): 1 µg/mL (≈ 2.96 µM)
- MIC (S. pneumoniae AB-2): 0.25 µg/mL (≈ 0.741 µM)
- MIC (H. influenzae 451): 16 µg/mL (≈ 47.4 µM)
- MIC (M. tuberculosis M-66; [3]): > 32 µg/mL
- MIC (S. pneumoniae AB-3): 0.25 µg/mL (≈ 0.741 µM)
- MIC (H. influenzae 1381): 16 µg/mL (≈ 47.4 µM)
- MIC (S. pneumoniae AB 23): 1 µg/mL (≈ 2.96 µM)
- MIC (Salmonella 205): > 16 µg/mL
- MIC (S. pneumoniae AB 22): 1 µg/mL (≈ 2.96 µM)
- MIC [1]: 1 µg/mL (≈ 2.96 µM)
- MIC (Moraxella M6; Moraxella, M6): 4 µg/mL (≈ 11.9 µM)
- MIC (S. epidermidis 358; 358): 1 µg/mL (≈ 2.96 µM)
- MIC (S. pneumoniae ATCC 49619): 1 µg/mL (≈ 2.96 µM)
- MIC [2]: < 0.5 µg/mL
- MIC (E. faecalis SP 346 (VRE); VRE): 2 µg/mL (≈ 5.93 µM)
- MIC (E. faecalis 21777; 21777): 2 µg/mL (≈ 5.93 µM)
- MIC (K. oxytoca 49131; 49131): > 16 µg/mL
- MIC (M. tuberculosis ATCC; [4]): 1 µg/mL
- MIC (S. aureus (MRSA) 15187; MRSA): 2 µg/mL (≈ 5.93 µM)
- MIC (S. aureus (MRSA) ST450; MRSA): 1 µg/mL (≈ 2.96 µM)
- MIC (E. faecium 6A (VRE); VRE): 2 µg/mL (≈ 5.93 µM)
- MIC (H. influenzae 49766): 16 µg/mL (≈ 47.4 µM)
- MIC (M. tuberculosis PC 4782; [5]): 1 µg/mL
- MIC (S. pyogenes 25147): 1 µg/mL (≈ 2.96 µM)
- MIC (S. pneumoniae AB 30): 1 µg/mL (≈ 2.96 µM)
- MIC (M. tuberculosis SGPGI; [4]): 4 µg/mL
- MIC (S. pneumoniae 1256; 1256): 1 µg/mL (≈ 2.96 µM)

Structure (SMILES): CO[C@H]1/C=C/O[C@@]2(C)Oc3c(C)c(O)c4c(O)c(c(/C=N/N5CCN(C)CC5)c(O)c4c3C2=O)NC(=O)/C(C)=C\C=C\[C@H](C)[C@H](O)[C@@H](C)[C@@H](O)[C@@H](C)[C@H](OC(C)=O)[C@@H]1C [RIF]
- MIC (M. intracellulare F21/12): 4.0 µg/mL
- MIC (M. tuberculosis M-66; S. No. 08 Mt-): >32 µg/mL
- MIC (M. tuberculosis ATCC): 0.25 µg/mL
- MIC (M. tuberculosis PC 4782; S. No. 21 Mt-): 0.06 µg/mL
- MIC (M. tuberculosis SGPGI): 16 µg/mL

Structure (SMILES): C[C@@H]1CN(c2c(F)c(N)c3c(=O)c(C(=O)O)cn(C4CC4)c3c2F)C[C@H](C)N1 [SPAR]
- MIC (M. intracellulare F21/12): 0.125 µg/mL
- MIC (M. tuberculosis M-66; S. No. 08 Mt-): 32 µg/mL
- MIC (M. tuberculosis ATCC): ≦0.125 μg/ml
- MIC (M. tuberculosis PC 4782; S. No. 21 Mt-): ≦0.125 μg/ml
- MIC (M. tuberculosis SGPGI): 0.25 µg/mL
